The source of these data is article PMC9650711, “Hydroxyl-Rich Hydrophilic Endocytosis-Promoting Peptide with No Positive Charge” (Journal of the American Chemical Society, 2022).

For one series, the system named is MDCK cell monolayers. It is filed as in vitro ADME, canine. The protocol:
FIBCD1 Lentiviral target, at different multiplicities of infection (MOI) levels. The cells were then incubated at 37 °C and 5% CO2. After 48 hours, the media was removed and replaced with fresh new media. Cell selection was carried out using G418 (Alfa Aesar) at 1 mg/mL for 7 days, and the surviving cells were collected and analyzed for FIBCD-KO efficiency by western blot. The best candidate was used for the RB-EPP6 uptake experiments described above.
200k MDCK cells were seeded in 200 μL of complete media in the apical side transwell insert (12-well 8 μm pore size Transwell-65 mm). In addition, 1 mL of complete growth media is added to the basolateral chamber. Six transwell inserts were prepared for a TAT peptide labeled with RB (RB-[…]), and six other inserts were prepared for RB-EPP6. The plate was incubated for 2-3 days at 37 °C with 5% CO2. The electrical resistance of the MDCK transwell inserts was measured using the EVOM Epithelial Voltohmmeter to monitor the integrity of tight junctions for the following two days. On day 3, serum-free media was used to wash both the apical (200 μL) and basolateral (1 mL) wells three times. […]
The assay was carried out in apical to basolateral directions. […] After that, 80 μL of the samples were collected from each chamber for RB fluorescence intensity reading using a Synergy […]

In a further series the target is T1, full-length FIBCD1 (Homo sapiens, UniProt Q8N539).
T1 construct: We overexpressed full-length FIBCD1 in CHO cells, extracted and purified the protein; host or cells: ExpiCHO (CHO) cells
T1 sequence (Q8N539 1-461): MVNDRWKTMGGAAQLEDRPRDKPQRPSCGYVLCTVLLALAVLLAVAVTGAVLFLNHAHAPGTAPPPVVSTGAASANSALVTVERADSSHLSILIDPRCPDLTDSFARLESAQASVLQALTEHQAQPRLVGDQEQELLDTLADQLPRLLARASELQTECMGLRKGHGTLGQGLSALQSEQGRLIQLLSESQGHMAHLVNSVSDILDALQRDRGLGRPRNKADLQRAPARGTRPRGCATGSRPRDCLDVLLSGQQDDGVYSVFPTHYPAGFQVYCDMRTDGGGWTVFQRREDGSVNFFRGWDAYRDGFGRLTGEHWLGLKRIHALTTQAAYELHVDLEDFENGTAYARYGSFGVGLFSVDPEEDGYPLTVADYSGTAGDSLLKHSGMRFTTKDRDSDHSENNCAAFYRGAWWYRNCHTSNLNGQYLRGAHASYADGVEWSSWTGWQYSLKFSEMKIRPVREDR
Briefly: Fluorescence polarization (FP) assay. It is filed as binding. Particulars: RB conjugates 50 nM, 1% BSA/PBST, room temperature 30 min, Hill fit; recombinant full-length FIBCD1 from CHO cells. As to the method:
experiment. Poly-A selective RNA-seq libraries were prepared using the NEB NextUltra II kit (New England Biolabs) and sequenced on an Illumina NextSeq500 with 2×75 pair-end reads. The obtained sequencing data was preprocessed using fastp, aligned using STAR, and counted using featureCounts. Differentially expressed genes were identified using DESeq2. The sequence data and analysis reports are deposited in the GEO repository (Accession # GSE202764) […]
U87 cells were incubated with 500 nM RB-EPP6 and YOYO, together with chondroitin sulfate (CSA) in complete media. After 1 h, trypsin was used to detach the cells. Cell pellets were collected by centrifugation. Fresh phenol-free medium was added to each condition. […]
Human FIBCD1 cDNA with an MYC-DDK tag was ordered from Origene (#RC206180) and was expressed using the mammalian expression system kit ExpiCHOTM (#A29133) as generally described by MAN0014337. […] The obtained full-length FIBCD1 was quantified using BCA.
Fluorescence polarization (FP) assay
Solutions of RB-EPPs (in 1% BSA/PBST) were added to different concentrations of full-length FIBCD1 (in 1% BSA/PBST). […] The solutions were incubated at room temperature for 30 minutes on an orbital shaker, and the fluorescence polarization values were quantified using a BioTek Synergy H1 plate reader, with an FP filter set (excitation 530/25, emission 590/35). […]
(In general: Polarisation of emitted light reports the rotation of a fluorescent probe.)

Another series has as its system zebrafish larvae. Briefly: Biodistribution in zebrafish larvae, fluorescence microscopy. Particulars: larvae 6 dpf, 1 h incubation; compared with free rhodamine dye and RB-GSQTH control. It is filed as in vivo.
In another series the test system is U87 cells. Briefly: Cell viability by YOYO staining, flow cytometry. In kind it is cell-based, human. The settings on record: RB-EPP6 20 nM to 100 μM. The protocol:
Confocal imaging experiments
To image the cells, a Zeiss 880 inverted confocal laser scanning microscope (Carl Zeiss, Germany) was used. Image acquisition and analyses were carried out using the manufacturer’s software (ZEN, Carl Zeiss). Quantification of fluorescence intensity in single cells was performed using Fiji […]
Flow cytometry experiments
To perform flow cytometry experiments, a NovoCyte flow cytometer (NovoExpress) was used.
Quantification of fluorescence intensity was achieved using the Novoxpress software. Fifty thousand cells were analyzed for each condition. A green fluorescent dye used for DNA staining, YOYO, was included in all the flow cytometry experiments, serving as a cell live/dead indicator.
[…]
2 μL of RB-EPP (in DMSO) was added to the solution at a concentration of 500 μM. […] Samples were collected from both phases and quantified by Analytical HPLC separately. […]
A general note: In flow cytometry, cells or beads pass a laser one at a time.

The test system of the next series is Caco2. Briefly: RB-EPP6 uptake in Caco2 cells. In kind it is cell-based. The settings on record: RB conjugate.

Numbered stars: 1 amine (or outer) side, 2 acyl side, 3 side chain; on linkers, the order of the positions; unused ones are H or OH. Bridge positions count the residues as written; N and C are the ends. Square brackets hold non-standard residues; d marks the D form. Triazole bridges read from a SMILES are 1,4-linked. Peptide text beside a SMILES is read from it. * marks the point of attachment. RhodamineB = CCN(CC)c1ccc2c(-c3ccccc3C(=O)*)c3ccc(=[N+](CC)CC)cc-3oc2c1; Lys(N3) = [N-]=[N+]=NCCCC[C@H](N)C(=O)O; NMeGABA = CN(CCCC(=O)[*:2])[*:1]; Pra = C#CC[C@H](N)C(=O)O

For `CCN(CC)c1ccc2c(-c3ccccc3C(=O)N(C)CCCC(=O)N[C@H]3Cc4cn(nn4)CCCC[C@@H](C(N)=O)NC(=O)[C@H](CO)NC(=O)[C@H](Cc4ccc(O)cc4)NC(=O)[C@H](Cc4ccc(O)cc4)NC(=O)[C@H](CO)NC(=O)[C@H](Cc4ccc(O)cc4)NC3=O)c3ccc(=[N+](CC)CC)cc-3oc2c1` [RB-EPP6, RB-cy(YSYYS)] (RhodamineB-[NMeGABA][Pra]YSYYS[Lys(N3)]-NH2; triazole 2-8), in the series with MDCK cell monolayers, the Papp is reported as 5.25 × 10^–6 and the “Papp compared with RB-TAT47–57” value is “more than twice”. Further, the Kd on full-length FIBCD1 is ~200 nM. Besides, the “tissue accumulation in zebrafish larvae” value with zebrafish larvae was “preferentially accumulated in the olfactory pit and neuromasts”. For the same compound, in the series on U87 cells, the “effect on cell viability” value is recorded as “without affecting cell viability”. Further, in the series with Caco2, the “uptake in Caco2 cells” value is “did not exhibit EPP6 uptake”.

Usually Kd stands for the constant that tells how readily two partners part at equilibrium.
